Reference: patent US6653504B1, “Non-hygroscopic salts of active ingredients having therapeutical and/or nutritional activities and orally administrable compositions containing same” (Sigma-Tau Industrie Farmaceutiche Riunite S.p.A., priority 1999, dated 2003)
Structures can show the parent of a compound that is named as a salt.

Experiments:
[1] = Hygroscopicity: increase in weight and appearance after exposure to humidity; format: physicochemical; conditions: exposure to 70±5% relative humidity, at 25° C. for 24 hours
[2] = background statement, no conditions given; cited from earlier work

Row | Compound | Appearance [1] | Increase in weight (%) [1] | Hygroscopicity of known salts [2]
1 | CC(=O)O[C@H](CC(=O)O)C[N+](C)(C)C.[Cl-] [Acetyl-L-carnitine chloride] | clumped mass | 8% | –
2 | CC(=O)O[C@H](CC(=O)[O-])C[N+](C)(C)C [Acetyl-L-carnitine inner salt] | deliquescent | 19% | –
3 | C[N+](C)(C)C[C@H](O)CC(=O)O.C[N+](C)(C)C[C@H](O)CC(=O)O.O=C([O-])C(O)C(O)C(=O)[O-] [L(−)-carnitine tartrate] | – | – | non-hygroscopic
4 | C[N+](C)(C)C[C@H](O)CC(=O)[O-] [L-carnitine inner salt] | deliquescent | 23% | –
5 | CC(=O)O[C@H](CC(=O)O)C[N+](C)(C)C.O=C([O-])/C=C/C(=O)O [acetyl L(−)-carnitine acid fumarate] | – | – | strongly hygroscopic
6 | L(−)-carnitine acid fumarate | – | – | non-hygroscopic
